Test system: a variety of test species
Test: Post-emergence herbicidal activity
Type: in vivo
Parameters: key to ABUTH (Abutilon theophrasti) damage score / AMARE (Amaranthus retroflexus) damage score / ALOMY (Alopecurus myosuroides) damage score / ECHCG (Echinochloa crus-galli) damage score / ZEAMX (Zea mays) damage score / SOLNI (Solanum nigrum) damage score: 0 = no damage to plant, 5 = total damage to plant
Settings: evaluated after 13 days
In short: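 Plants grown for 8 days in pots were sprayed post-emergence with compound in acetone/water (50:50) containing 0.5% Tween 20. They were kept in a glasshouse at 24/16 °C day/night, 14 h light, 65% humidity, watered twice daily. Damage was scored after 13 days (0 none to 5 total).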

Compound | ABUTH (Abutilon theophrasti) damage score (rate 1000 g/ha) | ALOMY (Alopecurus myosuroides) damage score (rate 1000 g/ha) | AMARE (Amaranthus retroflexus) damage score (rate 1000 g/ha) | ECHCG (Echinochloa crus-galli) damage score (rate 1000 g/ha) | SETFA (Setaria faberi) damage score (rate 1000 g/ha) | ZEAMX (Zea mays) damage score (rate 1000 g/ha) | ABUTH (Abutilon theophrasti) damage score (rate 250 g/ha) | ALOMY (Alopecurus myosuroides) damage score (rate 250 g/ha) | AMARE (Amaranthus retroflexus) damage score (rate 250 g/ha) | ECHCG (Echinochloa crus-galli) damage score (rate 250 g/ha) | SETFA (Setaria faberi) damage score (rate 250 g/ha) | ZEAMX (Zea mays) damage score (rate 250 g/ha)
COC1=C(C)C(=O)N(c2cc3c(cn2)CCCC3)C1O (stereo not drawn) [AD64] | 4 | 1 | 2 | 3 | 5 | 1 |  |  |  |  |  | 
COC1=C(C)C(=O)N(c2cc(C)c(-c3ccc(F)cc3C)cn2)C1O (stereo not drawn) [AD65] | 4 | 2 | 5 | 4 | 5 | 1 |  |  |  |  |  | 
COC1=C(C)C(=O)N(c2cc(C)c(-c3ccccc3C)cn2)C1O (stereo not drawn) [AD66] | 4 | 1 | 5 | 4 | 5 | 0 |  |  |  |  |  | 
COC1=C(C)C(=O)N(c2cc(C(F)(F)Cl)ccn2)C1O (stereo not drawn) [AD67] | 5 | 4 | 5 | 5 | 5 | 1 |  |  |  |  |  | 
CCOC(=O)c1cnc(N2C(=O)C(C)=C(OC)C2O)cc1Cl (stereo not drawn) [AD68] | 3 | 1 | 5 | 4 | 5 | 1 |  |  |  |  |  | 
COC1=C(C)C(=O)N(c2cc(Cl)c(Br)cn2)C1O (stereo not drawn) [AD69] | 0 | 2 | 4 | 3 | 5 | 1 |  |  |  |  |  | 
COC1=C(C)C(=O)N(c2cc(Cl)c(-c3ccccc3)cn2)C1O (stereo not drawn) [AD70] |  |  |  |  |  |  | 4 | 3 | 5 | 1 | 3 | 1
CCc1cc(N2C(=O)C(C)=C(OC)C2O)ncc1C=C(C)C (stereo not drawn) [AD71] | 4 | 2 | 5 | 3 | 5 | 2 |  |  |  |  |  | 
CCCOc1cnc(N2C(=O)C(C)=C(OC)C2O)cc1C(F)(F)F (stereo not drawn) [AD72] | 5 | 5 | 5 | 5 | 5 | 2 |  |  |  |  |  | 
C=CCCOc1cnc(N2C(=O)C(C)=C(OC)C2O)cc1C(F)(F)F (stereo not drawn) [AD73] | 5 | 4 | 5 | 4 | 5 | 1 |  |  |  |  |  | 
COC1=C(C)C(=O)N(c2cc(C(F)(F)F)c(OCc3cccc(OC)c3)cn2)C1O (stereo not drawn) [AD74] | 3 | 2 | 5 | 2 | 5 | 1 |  |  |  |  |  | 
COC1=C(C)C(=O)N(c2cc(C(F)(F)F)c(OC3CCC3)cn2)C1O (stereo not drawn) [AD75] |  |  |  |  |  |  | 5 | 4 | 5 | 2 | 4 | 1
COC1=C(C)C(=O)N(c2cc(C(F)(F)F)c(OCCc3cccs3)cn2)C1O (stereo not drawn) [AD76] |  |  |  |  |  |  | 4 | 2 | 4 | 1 | 3 | 1
C=C(C)COc1cnc(N2C(=O)C(C)=C(OC)C2O)cc1C(F)(F)F (stereo not drawn) [AD77] |  |  |  |  |  |  | 5 | 3 | 5 | 1 | 4 | 0
CCCCOc1cnc(N2C(=O)C(C)=C(OC)C2O)cc1C(F)(F)F (stereo not drawn) [AD78] | 4 | 3 | 5 | 5 | 5 | 2 |  |  |  |  |  | 

Source: US9611248B2, “Chemical compounds” (Syngenta Participations AG, priority 2013, dated 2017)
